Data set [1] concerns insulin sensitivity. Conditions: oral supplementation, insulin resistant individuals; cited from earlier work.
The test system of data set [2] is ovulation in women afflicted with polycystic ovary syndrome. Conditions: 44 women with PCOS; DCI 1200 mg/day for 6-8 weeks; placebo 27%; cited from earlier work.
A short description of data set [3]: Stability in concentrated aqueous acid (HCl). Format: physicochemical. Conditions: about 5 N to 12 N HCl, about 65° C. to about 110° C.; conditions that destroy other sugars and demethylate D-Pinitol. The text has this:
Therefore this single reaction provides D-chiro-inositol that is substantially free of other contaminating carbohydrates, thus eliminating the need for subsequent purification techniques.
One aspect of the invention involves the conversion of […] a concentrated acid. […] Thus a crude D-chiro-inositol composition comprising one or more components where at least 10% (w/w) of the mass is a D-chiro-inositol moiety is subject to concentrated acid in a solution of about 5 N to 12 N HCl at a temperature in the range of about 65° C. to about 110° C. for a period of time.

The subject of data set [4] is glucose tolerance and insulin secretion. Conditions: subjects with impaired glucose tolerance; DCI 1200 mg/day for 2 weeks; restored to normal levels; cited from earlier work.

On to `OC1C(O)C(O)C(O)C(O)C1O` [DCI, D-chiro-inositol], for which the insulin sensitivity result in data set [1] is listed as “improves insulin sensitivity”. For the same molecule, the “ovulation, proportion of patients” value in data set [2] is given as 86%. Also, the “stability under acidic conditions” value in data set [3] is “stable”. Further, in data set [4], the glucose tolerance result is “restored” and the insulin secretion result is listed as “restored”.

The record behind these values is patent US6660891B2, “Methods for the production of D-chiro-inositol and the use of D-chiro inositol obtained therefrom” (Insmed Incorporated, priority 2000, dated 2003).
